Data as given in patent publication US20050234113A1, “Antioxidant and radical scavenging activity of synthetic analogs of desferrithiocin” (University of Florida Research Foundation, Inc., priority 2002, published 2005).
“Also recorded” adds a separate entry of the source. Marks after values point to notes of the source that are not given here.

Key:
[1] = Prevention of iron-mediated oxidation of ascorbate (ascorbate-mediated reduction of Fe(III)); settings: ascorbate 100 μM, FeCl3 30 μM, pH 7.4, ligand/Fe ratios 0-3, 40 min
[2] = Quenching of the ABTS radical cation
[3] = Table 1, A734, six-minute reaction, pH 7.4, 1.25 to 15 μM
[4] = Table 3, A734, 6-min reaction, values marked b are the inventors' unpublished results

O=C(O)[C@H]1CSC(c2ccc(O)cc2O)=N1 [4′-(HO)-DADMDFT, 4′-hydroxydesazadesmethyldesferrithiocin]
effect on ascorbate-mediated reduction of Fe(III) (in words) [1]: significant protection | Slope × 10^3 OD units/μM (ABTS radical cation quenching) [2, 3]: −101.6 × 10^3 OD units/μM | Slope × 10^3 OD units/μM (ABTS radical cation quenching) [2, 4]: −102^b × 10^3 OD units/μM

CC(=O)N(O)CCCCCNC(=O)CCC(=O)N(O)CCCCCNC(=O)CCC(=O)N(O)CCCCCN [DFO, Desferrioxamine B, reference compound]
effect on ascorbate-mediated reduction of Fe(III) (in words) [1]: inhibited; also recorded: significant inhibition | Slope × 10^3 OD units/μM (ABTS radical cation quenching) [2, 3]: −136.8 × 10^3 OD units/μM | Slope × 10^3 OD units/μM (ABTS radical cation quenching) [2, 4]: −137^b × 10^3 OD units/μM
